This note sets out measurements from patent US6414019B1, “Synergistic mixtures of selected amino acids” (Agrogene Ltd., priority 1997, dated 2002).

≈ marks a conversion by molar mass, not a printed value. Where “and” joins values, the source holds several entries; their conditions need not be identical. Identical values can stand only once. Like-named read-outs stand apart in the source and are kept apart here.

This experiment has as its system Phytophthora infestans (resistant to metalaxyl). It counts as in vivo.
[1] abbreviates: 25 mg/L active ingredient, 5 days post inoculation, Table 12.
Where [2] appears, read: 125 mg/L active ingredient, 4 day post inoculation, Table 7.
Where [3] appears, read: 16 mg/L active ingredient, 5 days post inoculation, Table 2.
The mark [4] stands for this setting: 16 mg/L active ingredient, 6 day post inoculation, Table 6.
Where [5] appears, read: 62 mg/L active ingredient, 5 days post inoculation, Table 2.
Setting [6] is: 62 mg/L active ingredient, 6 day post inoculation, Table 6.
Where [7] appears, read: 250 mg/L active ingredient, 5 days post inoculation, Table 2.
[8] abbreviates: 250 mg/L active ingredient, 6 day post inoculation, Table 6.
[9] abbreviates: 250 mg/L active ingredient, Table 27.
[10] abbreviates: 500 mg/L active ingredient, Table 27.
Setting [11] is: 1000 mg/L active ingredient, 6 day post inoculation, Table 6.
Setting [12] is: 1000 mg/L active ingredient, Table 27.
Where [13] appears, read: Cultivar Cara, 16 mg/L active ingredient, 5 days post inoculation, Table 3.
The mark [14] stands for this setting: Cultivar Cara, 62 mg/L active ingredient, 5 days post inoculation, Table 3.
The mark [15] stands for this setting: Cultivar Cara, 250 mg/L active ingredient, 5 days post inoculation, Table 3.
The mark [16] stands for this setting: Cultivar Cara, 1000 mg/L active ingredient, 5 days post inoculation, Table 3.
Setting [17] is: Cultivar Draga, 16 mg/L active ingredient, 5 days post inoculation, Table 3.
Setting [18] is: Cultivar Draga, 62 mg/L active ingredient, 5 days post inoculation, Table 3.
Setting [19] is: Cultivar Draga, 250 mg/L active ingredient, 5 days post inoculation, Table 3.
Where [20] appears, read: Cultivar Draga, 1000 mg/L active ingredient, 5 days post inoculation, Table 3.
Where [21] appears, read: 16 mg/L active ingredient, 7 days post inoculation, Table 8.
Setting [22] is: 62 mg/L active ingredient, 7 days post inoculation, Table 8.
Setting [23] is: 250 mg/L active ingredient, 4 days post inoculation, Table 11.
The mark [24] stands for this setting: 250 mg/L active ingredient, 7 days post inoculation, Table 8.

For the compound `Cc1ccc(C(C)NC(=O)[C@@H](NC(=O)OC(C)C)C(C)C)cc1` (some centres unmarked) [Fencaramid], the “Percent Disease Control” value is, setting by setting: (2 mg/L active ingredient, 4 day post inoculation, Table 7) 0%; (2 mg/L active ingredient, 5 days post inoculation, Table 12) 0%; (8 mg/L active ingredient, 4 day post inoculation, Table 7) 50%; (8 mg/L active ingredient, 5 days post inoculation, Table 12) 50%; under setting [1], 100%; (31 mg/L active ingredient, 5 days post inoculation, Table 12) 98%. Also, the “Percent Disease Control” value was 98% (32 mg/L active ingredient, 4 day post inoculation, Table 7) and 100% under setting [2]. For the same compound, the ED90 stood at 19 µg/mL (≈ 59.3 µM) (4 day post inoculation, Table 7) and 19 µg/mL (≈ 59.3 µM) (5 days post inoculation, Table 12).

Take `CC(N)CC(=O)O` (stereo not drawn) [BABA, DLβ-amino-butanoic acid]: the “Percent Disease Control” value was determined as 3% (16 mg/L active ingredient, 5 day post inoculation, Table 4); 3% under setting [3]; 22% under setting [4]; 14% (16 mg/L active ingredient, 7 days, Table 5); 0% (32 mg/L active ingredient, 5 days post inoculation, Table 1); 24% (62 mg/L active ingredient, 5 day post inoculation, Table 4). The “Percent Disease Control” value reads like this: under setting [5], 24%; under setting [6], 22%; (62 mg/L active ingredient, 7 days, Table 5) 14%; (125 mg/L active ingredient, 5 days post inoculation, Table 1) 0%; (250 mg/L active ingredient, 5 day post inoculation, Table 4) 18%; (250 mg/L active ingredient, 5 days post inoculation, Table 1) 0%. In addition, the “Percent Disease Control” value is, setting by setting: under setting [7], 18%; under setting [8], 22%; (250 mg/L active ingredient, 7 days, Table 5) 14%; under setting [9], 38%; under setting [10], 75%; (1000 mg/L active ingredient, 5 day post inoculation, Table 4) 64%. For the same compound, the “Percent Disease Control” value (1000 mg/L active ingredient, 5 days post inoculation, Table 1) amounted to 13%; the “Percent Disease Control” value (1000 mg/L active ingredient, 5 days post inoculation, Table 2) is listed as 64%; the “Percent Disease Control” value under setting [11] was 69%; the “Percent Disease Control” value (1000 mg/L active ingredient, 7 days, Table 5) was 36%; the “Percent Disease Control” value under setting [12] stood at 93%; the “Percent Disease Control” value under setting [13] was 9%. Moreover, the “Percent Disease Control” value is recorded as 9% under setting [14]; 9% under setting [15]; 24% under setting [16]; 0% under setting [17]; 0% under setting [18]; 0% under setting [19]. The “Percent Disease Control” value under setting [20] is reported as 53%. The compound further came in with an ED90 (7 days) of 2617 µg/mL (≈ 25400 µM).

As for `CCNC(=O)NC(=O)/C(C#N)=N/OC` [Cymoxanil], the “Percent Disease Control” value runs as follows: (4 mg/L active ingredient, 5 days post inoculation, Table 2) 36%; under setting [3], 73%; under setting [4], 83%; under setting [5], 64%; under setting [6], 86%; under setting [7], 98%. Further, the “Percent Disease Control” value is on record as 91% under setting [8] and 100% under setting [11]. For the same compound, under “in vivo”, the ED90 is 128 µg/mL and 183 µg/mL.

With `CCCCCCCCOC(=O)CC(C)NC(=O)c1ccccc1` (racemic) [N-benzoyl octyl ester derivative of BABA], the “Percent Disease Control” value was 3% under setting [21]; 0% (16 mg/L active ingredient, 7 days post inoculation, Table 9); 0% (16 mg/L active ingredient, 7 days post inoculation, Table 10); 15% under setting [1]; 25% under setting [22]; 0% (62 mg/L active ingredient, 7 days post inoculation, Table 9). In addition, the “Percent Disease Control” value is, setting by setting: (62 mg/L active ingredient, 7 days post inoculation, Table 10) 0%; under setting [2], 15%; (250 mg/L active ingredient, 4 day post inoculation, Table 7) 25%; under setting [23], 63%; under setting [24], 25%; (250 mg/L active ingredient, 7 days post inoculation, Table 9) 0%. Moreover, the “Percent Disease Control” value (250 mg/L active ingredient, 7 days post inoculation, Table 10) stood at 0%; the “Percent Disease Control” value (500 mg/L active ingredient, 4 days post inoculation, Table 11) came out at 69%; the “Percent Disease Control” value (500 mg/L active ingredient, 5 days post inoculation, Table 12) was found to be 25%; the “Percent Disease Control” value (1000 mg/L active ingredient, 4 day post inoculation, Table 7) is 50%; the “Percent Disease Control” value (1000 mg/L active ingredient, 4 days post inoculation, Table 11) stood at 85%; the “Percent Disease Control” value (1000 mg/L active ingredient, 5 days post inoculation, Table 12) is listed as 50%. Further, the “Percent Disease Control” value runs as follows: (1000 mg/L active ingredient, 7 days post inoculation, Table 8) 75%; (1000 mg/L active ingredient, 7 days post inoculation, Table 9) 25%; (1000 mg/L active ingredient, 7 days post inoculation, Table 10) 25%; (2000 mg/L active ingredient, 4 day post inoculation, Table 7) 53%; (2000 mg/L active ingredient, 4 days post inoculation, Table 11) 89%; (2000 mg/L active ingredient, 5 days post inoculation, Table 12) 53%.

As to `CSC(=O)c1cccc2nnsc12` [BION, Acibenzolar-s-methyl], the “Percent Disease Control” value runs as follows: under setting [9], 13%; under setting [10], 25%; under setting [12], 78%. Also, for the setting “Table 27”, the ED90 stood at 1173 µg/mL (≈ 5580 µM).

Turning to `[Cu+2].[OH-].[OH-]` [Cu(OH)2, copper hydroxide], the “Percent Disease Control” value is 0% (4 mg/L active ingredient, 7 days post inoculation, Table 8); 0% under setting [21]; 13% under setting [22]; 75% under setting [24]. For the same compound, the ED90 (7 days post inoculation, Table 8) is 298 µg/mL.

For the compound `O=C1c2ccccc2C(=O)N1SC(Cl)(Cl)Cl` [FOLPET, Folpet], the “Percent Disease Control” value (4 mg/L active ingredient, 4 days post inoculation, Table 11) came out at 70%; the “Percent Disease Control” value (16 mg/L active ingredient, 4 days post inoculation, Table 11) came out at 75%; the “Percent Disease Control” value under setting [4] worked out at 81%; the “Percent Disease Control” value (62 mg/L active ingredient, 4 days post inoculation, Table 11) was 90%; the “Percent Disease Control” value under setting [6] was 95%; the “Percent Disease Control” value under setting [23] worked out at 95%. In addition, the “Percent Disease Control” value is 98% under setting [8] and 100% under setting [11]. Also, the ED90 turned out to be 141 µg/mL (≈ 475 µM) (4 days post inoculation, Table 11) and 84 µg/mL (≈ 283 µM) (6 day post inoculation, Table 6).

In the case of `CCO[PH](=O)O` [Fosetyl − Al, phosetyl-aluminium], the “Percent Disease Control” value came out at 9% under setting [13]; 24% under setting [14]; 24% under setting [15]; 70% under setting [16]; 33% under setting [17]; 33% under setting [18]. The “Percent Disease Control” value by setting is: under setting [19], 50%; under setting [20], 93%. In addition, the ED90 was 1390 µg/mL (≈ 12600 µM) (Cultivar Cara, 5 days post inoculation, Table 3) and 856 µg/mL (≈ 7780 µM) (Cultivar Draga, 5 days post inoculation, Table 3).
